What was measured:
[1] = tested on: subjects with relapsing remitting multiple sclerosis (RRMS); assay: ALLEGRO Phase III trial: disability endpoints (EDSS, MSFC); assay type: in vivo, human; conditions: for Time to confirmed (3 Ms) progression - EDSS, patients progressed: 24 months
From the text: Secondary endpoints were disability progression as measured by the EDSS and the Multiple Sclerosis Functional Composite (MSFC). Confirmed disability progression was defined as an increase of ≧1.0 EDSS point from baseline if baseline EDSS was between 0 and 5.0, or an increase of ≧0.5 point if baseline EDSS was ≧5.5. In order to confirm EDSS progression, these increases had to be sustained for at least three months. Additional predefined disability endpoints include the proportion of patients without confirmed disability progression at 24 months; confirmed disability progression (defined as change in EDSS scores ≧1.0 points for baseline EDSS 0 to 5.0 or ≧5.5) sustained for six months; the accumulation of physical disability as measured by mean EDSS and the mean change in EDSS from baseline to last observed value (LOV). For the MSFC, the measure was the total MSFC z score at 24 months (including patients who terminated after 12 months). The 9-hole peg test (9HPT) and the Paced Auditory Serial Addition Test (PASAT) were performed three times at screening to reduce confounding training effects during the trial. • 1. Accumulation of physical disability measured by the time to confirmed progression of EDSS during the study period (A confirmed progression of EDSS is defined as a 1 point increase from baseline on EDSS score if baseline EDSS was between 0 and 5.0, or a 0.5 point increase if the baseline EDSS was 5.5, confirmed 3 months later. Progression cannot be confirmed during a relapse). • 2. Disability, as assessed by the MSFC score at the end of the treatment period (month 24/30). • 3. The cumulative number of new T2 lesions on scans taken on months 12 and 24 (and 30 in the case of the 6 months extended study). • 4. The cumulative number of enhancing lesions on T1-weighted images taken on months 12 and 24 (and 30 in case of extending the study for 6 months.) Safety and Tolerability Outcome Measures • 1. Adverse events. • 2. Vital signs. • 3. Weight. • 4. Physical examination. • 5. Electrocardiogram (ECG) findings. • 6. Clinical laboratory parameters. • 7. Proportion of subjects (%) who prematurely discontinued from the study, reason of discontinuation and the time to withdrawal. • 8. Proportion of subjects (%) who prematurely discontinued form the study due to AEs and the time to withdrawal. […] To control against type-I error, the secondary endpoints were analyzed only after a significant effect was found for the primary endpoint. […] The MSFC at month 24 was analyzed using a baseline-adjusted ANCOVA (SAS@PROC GLM) with baseline MSFC as 1 degree of freedom covariate and baseline EDSS score, log of the 2-year prior relapse rate +1 and country or geographical region as additional covariates. […]

patients with RRMS = conditions: pooled ALLEGRO and BRAVO, all patients, 0.6 mg QD vs PBO; cited from earlier work

CCN(C(=O)c1c(O)c2c(Cl)cccc2n(C)c1=O)c1ccccc1 [Laquinimod, laquinimod]
Time to confirmed (3 Ms) progression - EDSS, patients progressed [1]: 9.8% progressed | Time to confirmed (3 Ms) progression - EDSS, patients progressed ([1]; listed as laquinimod): 9.8 % progressed | EDSS score at LOV, median ([1]; last observed value): 2.5 | MSFC total z scores at 24 months, Effect: reduction of risk to progress ([1]; vs placebo): 34% reduction of | Reduction in 6-month confirmed disability progression (CDP) (patients with RRMS): 46%
